Where two headings read alike, the source gives them in different places. Marks after values point to notes of the source that are not given here.
How the values were obtained:
[1] = tested on: corneal epithelial cells of rabbit; assay: In vivo alkaline comet assay of corneal epithelial cells after single ocular instillation
Protocol: Experiments were performed per sampling time, and […] clinically normal rabbits were randomly assigned to each treatment group.
After ocular instillation, the eyelids were artificially blinked several times. The rabbits were euthanized after 0.5, 2, 4, 6, and 24 h by intravenously administering an overdose (approximately 90 mg/kg) of thiopental solution (Ravonal; Nipro ES Pharma Co. Ltd., Osaka, Japan). The eyeballs of the rabbits were collected after euthanasia and subjected to the comet assay.
The collected eyes were washed with Ca^2+- and Mg^2+-free phosphate-buffered saline (PBS). After washing, the corneas were removed from the eyes using scissors. The removed corneas were treated with 1.2 unit/mL Dispase II (Roche Diagnostics K.K., Tokyo, Japan) in minimum essential media (MEM; Thermo Fisher Scientific K. K., Tokyo, Japan) supplemented with 10% bovine serum (10% BS/MEM) overnight at 4 °C. Corneal epithelial cells were isolated using a spatula and placed into fresh 10% BS/MEM. The cells were centrifuged at 200×g for 5 min, and the supernatants were discarded. The cells were resuspended in 1 mL of 0.25% trypsin (Thermo Fisher Scientific K. K.) and incubated for 10 min at 37 °C. Furthermore, 8 mL of 10% BS/MEM was added to the cells, and the cell suspensions were passed through a 70-μm cell strainer. The cells were centrifuged at 200×g for 5 min, and the supernatants were discarded. The cells were then resuspended with PBS to a density of approximately 2 × 10^5 cells/mL.
The alkaline comet assay was conducted according to previously published method. A 30 μL of the prepared cell suspension was mixed with 270 μL of melted agarose solution (CometAssay LMAgarose; Trevigen, Inc., Gaithersburg, MD). Then, 30 μL of this mixture was placed in each well of a 20-well slide (CometSlide HT, Trevigen, Inc.), and the slide was left for approximately 10 min at 4 °C to solidify the agarose. The slide was immersed in lysis solution (pH 10) containing 2.5 M sodium chloride, 100 mM di-sodium dihydrogen ethylenediaminetetraacetate dihydrate (EDTA∙2Na), 10 mM tris(hydroxymethyl)aminomethane (Tris), and 1% (v/v) polyethylene glycol mono-p-isooctylphenyl ether for 1 h at 4 °C. Subsequently, the slide was immersed in an alkaline unwinding solution (200 mM sodium hydroxide and 1 mM EDTA, pH > 13) for 20 min at room temperature. Electrophoresis was performed with the same solution at 1 V/cm for 30 min under refrigeration. After electrophoresis, the slide was washed twice with ultrapure water and dehydrated by immersion in ethanol for 10 min. The slide was stained with SYBR Green I Nucleic Acid Gel Stain (excitation maxima at 497 nm, emission maxima at 520 nm; Thermo Fisher Scientific K. K.) diluted 1:1000 with Tris-EDTA buffer (pH 7.5) and mounted using ProLong Gold (Thermo Fisher Scientific K. K.). The slide was observed using a BX51 fluorescence microscope (Olympus Corporation, Tokyo, Japan) with a NIBA filter (excitation at 460–495 nm and emission at 510–550 nm) equipped with a CCD camera (scA1300-32 fm; Basler AG, Ahrensburg, Germany).
First, the number of “hedgehogs” was counted among 150 comets per eye (450 comets per group). According to the Atlas of Comet Assay Images, hedgehogs are highly fragmented cells presenting as a small or non-existent comet head and large diffuse comet tail. Second, 150 scorable comets (i.e., with a clearly defined head and tail with no interference from neighboring cells) without hedgehogs were measured per eye (450 comets per group).

[2] = Cytotoxicity assay (Cell Counting Kit-8) after 1 min exposure; format: cell-based, human; conditions: human
Protocol: (§1) For cytotoxicity assay, the HCE-T cells were seeded in a 96-well culture plate at a density of 5 × 10^3 cells/well (100 μL/well) and incubated for approximately 24 h. After the 24-h incubation, the cells were washed with PBS. The cells were then exposed to a mixture of 50 μL of serum-free medium and an equal volume of test compounds at twice concentration of final concentration for 1 min at room temperature. After the treatment, the cells were washed with PBS, and 100 μL of fresh culture medium was added. The cells were further incubated for 2, 4, 6, and 24 h at 37 °C. After that, the cells were incubated with 100 μL of Cell Counting Kit-8 (Dojindo Laboratories Co., Ltd., Kumamoto, Japan) diluted to one-tenth with a serum-free medium for 2 h at 37 °C. Absorbance was measured at 450 nm using a microplate reader (Synergy HTX, BioTek Instruments Inc., Winooski, VT). Cell viability was calculated as follows: the absorbance of compound-treated cells/the absorbance of non-treated cells, expressed as a percentage (n = 3/group).
(§2) The mean and SD of the % tail DNA and cell viability (%) were calculated for all experimental groups. […] JMP version 15.1.0 was used for all statistical analyses.

[3] = tested on: anterior segment of the eye; assay: Ophthalmological examination of anterior ocular segment (slit-lamp, fluorescein staining); format: in vivo, rabbit
Protocol: (§3) Twenty-four hours after administration, the anterior segment of the eye was observed using a slit-lamp biomicroscope SL-130 (Carl Zeiss Meditec AG, Jena, Germany). The corneal epithelial damage was evaluated by staining with fluorescein (AYUMI Pharmaceutical Corporation, Tokyo, Japan). After anterior ocular observation, the rabbits were euthanized in the same manner as the comet assay, and the eyeballs of the rabbits were collected.

[4] = tested on: HCE-T cells; assay: In vitro comet assay after 1 min exposure; format: cell-based, human
Protocol: To assess time-course changes in DNA damage after short-time exposure to the genotoxic compounds, the in vitro comet assay was performed using HCE-T cells with reference to our previous study. Briefly, the HCE-T cells were seeded in a 12-well culture plate at a density of 5 × 10^4 cells/well (1 mL/well) and incubated for approximately 24 h. After a 24-h incubation, the cells were washed with PBS. […] After the treatment, the cells were washed with PBS, and 1 mL of fresh culture medium was added. The cells were further incubated for 2, 4, 6, and 24 h at 37 °C. After incubation, the cells were trypsinized (TrypLE™ Express, Thermo Fisher Scientific K.K.). In the same manner, the cells were exposed to the test compounds or distilled water as a negative control for 1 min to evaluate DNA damage immediately after exposure. Immediately after the treatment, the cells were washed and trypsinized. The collected cells were centrifuged and re-suspended in PBS at a density of 1–2 × 10^5 cells/mL. Comet assay was performed as described previously herein (n = 3/group).
as §2

[5] = tested on: HCE-T cells; assay: Cytotoxicity assay (Cell Counting Kit-8) after 1 min exposure; format: cell-based, human
Protocol: as §1, §2

[6] = tested on: rabbit cornea; assay: Histopathological examination of cornea; conditions: in vivo
Protocol: as §3
The collected eyes (one eye per group) were fixed with 1% formaldehyde/2.5% glutaraldehyde in 0.1 M phosphate buffer fixative overnight at 4 °C and post-fixed with 10% neutral-buffered formalin solution. The tissues were dehydrated using a graded alcohol series and embedded in paraffin. Approximately 3-μm-thick corneal tissue sections were prepared and stained with hematoxylin and eosin. All microscopic images were obtained with a BX53 microscope fitted with a DP74 digital camera (Olympus Corporation) and analyzed using the cellSens Standard imaging software, version 2.3 (Olympus Corporation).

[7] = after single ocular instillation (1% EtBr, 3% MMS, 1% 4-NQO), sampling at 0.5, 2, 4, 6, 24 h

SMILES: O=[N+]([O-])c1cc[n+]([O-])c2ccccc12 [4-NQO, 4-nitroquinoline 1-oxide]
- Time of the peak value of the % tail DNA [1, 7]: 0.5 h
- viability at 2 h ([2]; read-out: Cell viability): 139 ± 2%
- viability at 4 h ([2]; read-out: Cell viability): 114 ± 14.5%
- viability at 6 h ([2]; read-out: Cell viability): 123 ± 24.2%
- viability at 24 h ([2]; read-out: Cell viability): 118 ± 13.9%

SMILES: CC[n+]1c(-c2ccccc2)c2cc(N)ccc2c2ccc(N)cc21 [EtBr, ethidium bromide]
- % tail DNA, median ([1]; 0.5 h after single ocular instillation (1% EtBr, 3% MMS, 1% 4-NQO)): 25.8%
- Frequency of hedgehog ([1]; 0.5 h after single ocular instillation (1% EtBr, 3% MMS, 1% 4-NQO), mean ± SD, n = 3): 3.6 ± 2.5%
- % tail DNA, mean ± SD ([1]; 0.5 h after single ocular instillation of 50 μL (1% EtBr, 3% MMS, 1% 4-NQO), n = 3 eyes): 31.0 ± 3.0%
- % tail DNA, median ([1]; 2 h after single ocular instillation (1% EtBr, 3% MMS, 1% 4-NQO)): 22.6%
- Frequency of hedgehog ([1]; 2 h after single ocular instillation (1% EtBr, 3% MMS, 1% 4-NQO), mean ± SD, n = 3): 3.3 ± 1.7%
- % tail DNA, mean ± SD ([1]; 2 h after single ocular instillation of 50 μL (1% EtBr, 3% MMS, 1% 4-NQO), n = 3 eyes): 28.1 ± 1.6%
- % tail DNA, median ([1]; 4 h after single ocular instillation (1% EtBr, 3% MMS, 1% 4-NQO)): 61.5%
- Frequency of hedgehog ([1]; 4 h after single ocular instillation (1% EtBr, 3% MMS, 1% 4-NQO), mean ± SD, n = 3): 8.9 ± 3.5^a %
- % tail DNA, mean ± SD ([1]; 4 h after single ocular instillation of 50 μL (1% EtBr, 3% MMS, 1% 4-NQO), n = 3 eyes): 55.3 ± 1.4%
- % tail DNA, median ([1]; 6 h after single ocular instillation (1% EtBr, 3% MMS, 1% 4-NQO)): 40.4%
- Frequency of hedgehog ([1]; 6 h after single ocular instillation (1% EtBr, 3% MMS, 1% 4-NQO), mean ± SD, n = 3): 1.6 ± 2.3%
- % tail DNA, mean ± SD ([1]; 6 h after single ocular instillation of 50 μL (1% EtBr, 3% MMS, 1% 4-NQO), n = 3 eyes): 41.0 ± 6.5%
- % tail DNA, median ([1]; 24 h after single ocular instillation (1% EtBr, 3% MMS, 1% 4-NQO)): 5.4%
- Frequency of hedgehog ([1]; 24 h after single ocular instillation (1% EtBr, 3% MMS, 1% 4-NQO), mean ± SD, n = 3): 0.4 ± 0.6%
- % tail DNA, mean ± SD ([1]; 24 h after single ocular instillation of 50 μL (1% EtBr, 3% MMS, 1% 4-NQO), n = 3 eyes): 10.0 ± 4.0%
- Time of the peak value of the % tail DNA [1, 7]: 4 h
- Ophthalmological changes of the anterior ocular segment ([3]; 24 h after single ocular instillation (1% EtBr, 3% MMS)): No abnormal ophthalmological changes
- Change of % tail DNA after removing the compound ([4]; 1 min exposure (0.5% EtBr, 0.5% MMS, 0.001% 4-NQO), then 2, 4, 6, 24 h in fresh medium): gradually increased
- viability at 2 h ([2]; read-out: Cell viability): 89.3 ± 6.1%
- viability at 4 h ([2]; read-out: Cell viability): 74.7 ± 8%
- viability at 6 h ([2]; read-out: Cell viability): 73.1 ± 4.6%
- viability at 24 h ([2]; read-out: Cell viability): 39.1 ± 1.3%
- Cytotoxicity (in words) ([5]; 24 h after removing the compound, 1 min exposure, 0.5% EtBr): Moderate cytotoxicity
- Cytotoxicity (in words) ([5]; other times (2, 4, 6 h) after removing the compound, 1 min exposure, 0.5% EtBr): slight cytotoxicity

SMILES: COS(C)(=O)=O [MMS, methyl methanesulfonate]
- Time of the peak value of the % tail DNA ([1]; rabbit, in vivo): 0.5 h
- % tail DNA, mean ± SD ([1]; rabbit, in vivo, 0.5 h): 66.2 ± 1.8%
- % tail DNA, median ([1]; rabbit, in vivo, 0.5 h): 70.8%
- Frequency of hedgehog ([1]; rabbit, in vivo, 0.5 h): 12.9 ± 7.8^a %
- % tail DNA, mean ± SD ([1]; rabbit, in vivo, 2 h): 63.6 ± 4.4%
- % tail DNA, median ([1]; rabbit, in vivo, 2 h): 69.4%
- Frequency of hedgehog ([1]; rabbit, in vivo, 2 h): 13.6 ± 8.3^a %
- % tail DNA, mean ± SD ([1]; rabbit, in vivo, 4 h): 47.1 ± 7.2%
- % tail DNA, median ([1]; rabbit, in vivo, 4 h): 48.9%
- Frequency of hedgehog ([1]; rabbit, in vivo, 4 h): 10.7 ± 1.0^a %
- % tail DNA, mean ± SD ([1]; rabbit, in vivo, 6 h): 50.1 ± 2.8%
- % tail DNA, median ([1]; rabbit, in vivo, 6 h): 56.0%
- Frequency of hedgehog ([1]; rabbit, in vivo, 6 h): 8.0 ± 2.0^a %
- % tail DNA, mean ± SD ([1]; rabbit, in vivo, 24 h): 40.1 ± 2.4%
- % tail DNA, median ([1]; rabbit, in vivo, 24 h): 38.1%
- Frequency of hedgehog ([1]; rabbit, in vivo, 24 h): 2.0 ± 1.0^a %
- Ophthalmological changes of the anterior ocular segment ([3]; rabbit, in vivo): No abnormal ophthalmological changes
- Infiltrate, inflammatory cell, corneal limbus [6]: ±
- Change of % tail DNA after removing the compound [4]: decreased
- viability at 2 h [2]: 115 ± 5.1%
- viability at 4 h [2]: 108.1 ± 0.3%
- viability at 6 h [2]: 108 ± 4.9%
- viability at 24 h [2]: 108 ± 11.3%
- Cytotoxicity (in words) [5]: no cytotoxicity

Source: publication PMC9082918, “Time-course changes in DNA damage of corneal epithelial cells in rabbits following ocular instillation with genotoxic compounds” (Genes and Environment, 2022)
